Experimental data published in article PMC5484120 (Marine Drugs, 2017).
“And” between values parts separate entries of the source, which are not always exact repeats. Identical values can stand only once.

Molecular target: T1, hα9α10 nAChR (Homo sapiens, UniProt Q9GZZ6+Q9UGM1)
T1 construct: expressed in transfected cells; host or cells: Xenopus laevis oocytes injected with cRNA
Test: cell-based
Assay type: cell-based

T1 sequence (Q9UGM1 26-479 limits assumed): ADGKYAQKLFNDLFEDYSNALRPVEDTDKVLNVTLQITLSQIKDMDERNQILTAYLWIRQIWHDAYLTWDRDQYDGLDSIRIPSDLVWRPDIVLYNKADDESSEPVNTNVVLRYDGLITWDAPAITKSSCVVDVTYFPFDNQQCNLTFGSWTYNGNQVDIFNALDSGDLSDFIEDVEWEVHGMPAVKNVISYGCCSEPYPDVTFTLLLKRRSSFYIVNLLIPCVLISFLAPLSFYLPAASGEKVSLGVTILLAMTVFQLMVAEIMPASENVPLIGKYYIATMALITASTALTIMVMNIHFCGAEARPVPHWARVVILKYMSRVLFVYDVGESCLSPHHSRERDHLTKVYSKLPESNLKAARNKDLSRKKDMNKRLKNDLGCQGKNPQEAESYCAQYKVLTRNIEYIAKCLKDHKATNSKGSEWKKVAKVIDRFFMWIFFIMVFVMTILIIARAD
T1 sequence (Q9GZZ6 25-450): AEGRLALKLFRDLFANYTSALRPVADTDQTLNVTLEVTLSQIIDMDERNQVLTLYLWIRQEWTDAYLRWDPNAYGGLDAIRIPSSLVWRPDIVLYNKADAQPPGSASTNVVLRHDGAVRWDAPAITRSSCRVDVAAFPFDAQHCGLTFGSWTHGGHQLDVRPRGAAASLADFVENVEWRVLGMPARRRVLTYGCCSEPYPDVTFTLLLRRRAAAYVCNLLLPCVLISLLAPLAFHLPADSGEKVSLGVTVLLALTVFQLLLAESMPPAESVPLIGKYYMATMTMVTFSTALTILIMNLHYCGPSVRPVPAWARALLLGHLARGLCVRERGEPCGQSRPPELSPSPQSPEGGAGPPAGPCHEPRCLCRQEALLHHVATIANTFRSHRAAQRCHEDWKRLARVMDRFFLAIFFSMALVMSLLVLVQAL

CSCC[C@H](NC(=O)[C@H](CC(C)C)NC(=O)[C@H](C)N)C(=O)N[C@@H](CO)C(=O)N[C@H](C(=O)NCC(=O)N[C@H](C(=O)N[C@@H](CC(N)=O)C(=O)N[C@@H](Cc1ccc(O)cc1)C(=O)N[C@@H](CCCNC(=N)N)C(=O)N[C@@H](CC(C)C)C(=O)N[C@@H](CC(C)C)C(=O)N[C@@H](CCCCN)C(=O)N[C@H](C(=O)N[C@@H](CSCC(N)=O)C(=O)N[C@@H](CCCNC(=N)N)C(=O)NCC(=O)N[C@@H](CO)C(=O)NCC(=O)N[C@@H](CCCNC(=N)N)C(=O)N[C@@H](Cc1ccc(O)cc1)C(=O)N[C@@H](CSCC(N)=O)C(=O)N[C@@H](CCCNC(=N)N)C(=O)N[C@@H](CO)C(=O)N1CCC[C@H]1C(=O)N[C@@H](Cc1ccc(O)cc1)C(=O)O)[C@@H](C)O)[C@@H](C)O)[C@@H](C)O [GeXXVIIA-L-Nter]
IC50: 222 ± 14 nM | inhibition of ACh-evoked current, hα9α10 nAChR: > 90% and ~ 55%
